The values that follow come from patent publication US7163952B2, “Azole compound and medicinal use thereof” (Japan Tobacco Inc., priority 2001, dated 2007).

The first data set concerns the target T1, recombinant human protein tyrosine phosphatase 1B (Homo sapiens, UniProt P18031).
T1 construct: purchased UBI
T1 sequence (P18031 1-435): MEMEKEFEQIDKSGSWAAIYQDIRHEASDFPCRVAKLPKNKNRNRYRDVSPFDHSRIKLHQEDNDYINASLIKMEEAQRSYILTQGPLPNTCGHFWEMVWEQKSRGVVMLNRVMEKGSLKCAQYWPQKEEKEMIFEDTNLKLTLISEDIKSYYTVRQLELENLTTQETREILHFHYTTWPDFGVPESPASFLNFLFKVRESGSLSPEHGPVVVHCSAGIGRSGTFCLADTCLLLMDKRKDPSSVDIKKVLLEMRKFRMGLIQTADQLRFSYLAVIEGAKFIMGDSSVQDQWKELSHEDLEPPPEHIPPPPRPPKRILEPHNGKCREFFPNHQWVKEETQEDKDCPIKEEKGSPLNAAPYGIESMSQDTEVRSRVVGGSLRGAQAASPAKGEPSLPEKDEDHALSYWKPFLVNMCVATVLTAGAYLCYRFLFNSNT
As to the kind of experiment: Protein tyrosine phosphatase 1B inhibitory action (malachite green, phosphorylated insulin receptor peptide substrate). The format is biochemical. The note with it: recombinant human PTP1B, 60 min room temperature, absorbance at 650 nm. Here is the method: Preparation of Assay Buffer:
50 mM Tris-HCl buffer (pH 7.5), and 50 mM NaCl and 3 mM dithiothreitol (DTT) were prepared.
Respective 10 mM DMSO solutions of 0.1, 0.3, 1, 3 and 10 μM test compounds were diluted with the above-mentioned assay buffer so that the final dimethyl sulfoxide (DMSO) concentration would be not more than 1%. As a control, an assay buffer was used.
Preparation of Substrate:
A synthetic peptide consisting of 12 amino acids corresponding to 1142nd–1153rd of insulin receptor sequence, wherein three tyrosines therein had been phosphorylated, was diluted with the above-mentioned assay buffer to 80 μM.
A recombinant human protein tyrosine phosphatase 1B (manufactured by UBI) was diluted with the above-mentioned assay buffer (1.2 ng/25 μl).
A sample (10 μl) and a substrate (25 μl) prepared as mentioned above were successively added to a 96 well plate, and an enzyme (25 μl) prepared as mentioned above was added and mixed. After incubation at room temperature for 60 min., malachite green (120 μl, Biomol), which is a phosphorus color fixing agent, was added, and the mixture was further incubated at room temperature for 20 min. to allow color development. The absorbance at 650 nm was measured on a plate reader, and the protein tyrosine phosphatase 1B inhibitory action of the test compound was evaluated.
Usually IC50 stands for the concentration needed to halve the response being measured. In the case of `CN(c1ccc(C(=O)O)cc1)c1nc(-c2ccc(NCc3ccc(C4CCCCC4)cc3)cc2)cs1` [Example 3, 4-(N-(4-(4-(4-cyclohexylbenzylamino)phenyl)-2-thiazolyl)-N-methylamino)benzoic acid], the half-maximal inhibitory concentration (IC50) came out at 0.5 µM.
Same read-out and setting: the figure for `CN(Cc1ccc(C(=O)O)cc1)c1nc(-c2ccc(OCc3ccc(C4CCCCC4)cc3)cc2)cs1` [Example 2, potassium 4-(N-(4-(4-(4-cyclohexylbenzyloxy)phenyl)-2-thiazolyl)-N-methylaminomethyl)benzoate] is 0.22 µM.

For another data set, the system named is male ob/ob mice. As to the kind of experiment: Hypoglycemic action in ob/ob mice, oral administration. The class given is in vivo. The note with it: Mus musculus, dose 1 mg/kg oral, fasting, 3 hr after administration, relative to control group, read-out: Decrease in blood glucose level (%) 3 hr. As for the experimental part:
A 0.5% methyl cellulose suspension of the test compound was orally administered to male ob/ob mice (6 to 9 weeks old) grouped based on blood glucose level. A 0.5% methyl cellulose solution alone was administered to a control group.
The blood was drawn from the orbital vein with anesthesia at 3 hours after the administration. The blood was drawn under fasting by removing the feed immediately before test compound administration. The blood thus drawn was separated by centrifugation and the blood glucose level was measured from the obtained plasma according to the hexokinase method (glucose measure kit). For evaluation, decrease in the blood glucose level of the test compound administration group relative to the control group was shown in percentage.
Consider `CN(c1ccc(C(=O)O)cc1)c1nc(-c2ccc(NCc3ccc(C4CCCCC4)cc3)cc2)cs1` [Example 3, 4-(N-(4-(4-(4-cyclohexylbenzylamino)phenyl)-2-thiazolyl)-N-methylamino)benzoic acid], for which the inhibition in vivo at 1 mg/kg was 27%.
Turning to `CN(Cc1ccc(C(=O)O)cc1)c1nc(-c2ccc(OCc3ccc(C4CCCCC4)cc3)cc2)cs1` [Example 2, potassium 4-(N-(4-(4-(4-cyclohexylbenzyloxy)phenyl)-2-thiazolyl)-N-methylaminomethyl)benzoate], the inhibition in vivo at 1 mg/kg was found to be 37%.

The same data set, now with this note: Mus musculus, dose 3 mg/kg oral, fasting, 3 hr after administration, relative to control group, read-out: Decrease in blood glucose level (%) 3 hr.
`CN(c1ccc(C(=O)O)cc1)c1nc(-c2ccc(NCc3ccc(C4CCCCC4)cc3)cc2)cs1` [Example 3, 4-(N-(4-(4-(4-cyclohexylbenzylamino)phenyl)-2-thiazolyl)-N-methylamino)benzoic acid]: the inhibition in vivo at 3 mg/kg worked out at 35%.
The same measure, in the same setting: in the case of `CN(Cc1ccc(C(=O)O)cc1)c1nc(-c2ccc(OCc3ccc(C4CCCCC4)cc3)cc2)cs1` [Example 2, potassium 4-(N-(4-(4-(4-cyclohexylbenzyloxy)phenyl)-2-thiazolyl)-N-methylaminomethyl)benzoate] it was 47%.

System in another data set: not given
Test: not given
Conditions: not given
In general, melting point refers to the temperature of the solid-liquid transition. Regarding `CC(C)N(c1ccc(C(=O)O)cc1)c1nc(-c2ccc(NC(=O)c3ccc(C4CCCCC4)cc3)cc2)cs1` [Example 10, 4-(N-(4-(4-(4-cyclohexylbenzoylamino)phenyl)-2-thiazolyl)-N-isopropylamino)benzoic acid], the melting point is 230 °C (dec.).
On the same count and under the same terms, in the case of `O=C(O)c1ccc(Nc2nc(-c3cc(Cl)ccc3OCc3ccccc3)cs2)cc1` [Example 148, 4-(4-(2-benzyloxy-5-chlorophenyl)-2-thiazolylamino)benzoic acid] it was 208 to 211 °C; in that of `COc1ccc(OCc2ccc(C(F)(F)F)cc2)c(-c2csc(N(CCC3CCCCC3)Cc3ccc(C(=O)O)cc3)n2)c1` [Example 166, 4-((N-(2-cyclohexylethyl)-N-(4-(5-methoxy-2-(4-trifluoromethylbenzyloxy)phenyl)-2-thiazolyl)amino)methyl)benzoic acid], 183 to 184 °C.
On the same count and under the same terms, the figure for `O=C(O)c1ccc(Nc2nc(-c3ccc(NC(=O)c4ccccc4)cc3)cs2)cc1` [Example 4, 4-(4-(4-benzoylaminophenyl)-2-thiazolylamino)benzoic acid] is 250 °C (dec.); for `CN(Cc1ccc(C(=O)O)cc1)c1nc(-c2ccc(CN3CCN(C(=O)OCc4ccccc4)CC3)cc2)cs1` [Example 243, benzyl 4-(4-(2-(N-(4-carboxybenzyl)-N-methylamino)-4-thiazolyl)benzyl)-piperazine-1-carboxylate] it is 122 to 127 °C.
Same read-out and setting: the figure for `Cc1ccc(OCc2ccccc2)c(-c2csc(N(CCC3CCCCC3)c3ccc(C(=O)O)cc3)n2)c1` [Example 175, 4-(N-(4-(2-benzyloxy-5-methylphenyl)-2-thiazolyl)-N-(2-cyclohexylethyl)amino)benzoic acid] is 148 to 150 °C; for `O=C(O)c1ccc(Nc2nc(-c3ccc(OCc4ccc(C5CCCCC5)cc4)cc3)cs2)cc1` [Example 21, 4-(4-(4-(4-cyclohexylbenzyloxy)phenyl)-2-thiazolylamino)benzoic acid] it is 250 °C (dec.).
Turning to `O=C(O)c1ccc(Cc2nc(-c3ccc(NC(=O)c4ccc(C5CCCCC5)cc4)cc3)cs2)cc1` [Example 68, 4-(4-(4-(4-cyclohexylbenzoylamino)phenyl)-2-thiazolylmethyl)benzoic acid], the melting point is 230 °C (dec.).
Same read-out and setting: in the case of `O=C(O)c1ccc(Cc2nc(-c3ccc(NC(=O)c4ccc(-n5cccc5)cc4)cc3)cs2)cc1` [Example 70, 4-(4-(4-(4-(1-pyrrolyl)benzoylamino)phenyl)-2-thiazolylmethyl)benzoic acid] it was 220 °C (dec.).
Still for that read-out and setting: in the case of `CC(C)N(Cc1ccc(-c2nnn[nH]2)cc1)c1nc(-c2ccc(OCc3ccc(C4CCCCC4)cc3)cc2)cs1` [Example 79, N-(4-(4-(4-cyclohexylbenzyloxy)phenyl)-2-thiazolyl)-N-isopropyl-(4-(1H-tetrazol-5-yl)benzyl)amine] it was 238 to 239 °C; in that of `CC(C)N(Cc1ccc(C(=O)O)cc1)c1nc(-c2ccc(NC(=O)c3ccc(-c4ccccc4)cc3)cc2)cs1` [Example 64, 4-((N-(4-(4-(4-biphenylcarbonylamino)phenyl)-2-thiazolyl)-N-isopropylamino)methyl)benzoic acid], 250 °C (dec.); in that of `O=C(O)CN(c1ccc(C(=O)O)cc1)c1nc(-c2ccc(NC(=O)C3CCCCC3)cc2)cs1` [Example 14, 4-(N-carboxymethyl-N-(4-(4-(cyclohexanecarbonylamino)phenyl)-2-thiazolyl)amino)benzoic acid], 210 °C (dec.).
Regarding `COc1cc(COc2ccc3nc(-c4csc(N(CC5CCCCC5)c5ccc(C(=O)O)cc5)n4)oc3c2)cc(OC)c1` [Example 191, 4-(N-cyclohexylmethyl-N-(4-(6-(3,5-dimethoxybenzyloxy)-2-benzooxazolyl)-2-thiazolyl)amino)benzoic acid], the melting point was 160 to 162 °C.
The same measure, in the same setting: the figure for `CC(C)N(c1ccc(C(=O)O)cc1)c1nc(-c2ccc(OCc3ccc(C4CCCCC4)cc3)cc2)cs1` [Example 24, 4-(N-(4-(4-(4-cyclohexylbenzyloxy)phenyl)-2-thiazolyl)-N-isopropylamino)benzoic acid] is 238 to 240 °C.
Still for that read-out and setting: the figure for `CN(Cc1ccc(C2CCCCC2)cc1)c1ccc(-c2csc(NCc3ccc(C(=O)O)cc3)n2)cc1` [Example 247, 4-((4-(4-(N-(4-cyclohexylbenzyl)-N-methylamino)phenyl)-2-thiazolylamino)methyl)benzoic acid] is 209 °C (dec.).
The same measure, in the same setting: the figure for `O=C(O)c1ccc(N(CCC2CCCCC2)c2nc(-c3cc(F)ccc3OCc3ccccc3)cs2)cc1` [Example 174, 4-(N-(4-(2-benzyloxy-5-fluorophenyl)-2-thiazolyl)-N-(2-cyclohexylethyl)amino)benzoic acid] is 125 to 130 °C; for `CN(c1ccc(C(=O)O)cc1)c1nc(-c2ccc(NCc3ccc(C(F)(F)F)cc3)cc2)cs1` [Example 133, 4-(N-methyl-N-(4-(4-(4-trifluoromethylbenzylamino)phenyl)-2-thiazolyl)amino)benzoic acid] it is 230 °C (dec.).
`CC(C)(c1ccc(C(=O)O)cc1)c1nc(-c2ccc(NC(=O)c3ccc(C4CCCCC4)cc3)cc2)cs1` [Example 43, 4-(1-(4-(4-(4-cyclohexylbenzoylamino)phenyl)-2-thiazolyl)-1-methylethyl)benzoic acid] had a melting point of 262 to 264 °C.
Same read-out and setting: in the case of `CC(C)N(c1ccc(OCC(=O)O)cc1)c1nc(-c2ccc(NC(=O)c3ccc(N4CCCCC4)nc3)cc2)cs1` [Example 57, (4-(N-isopropyl-N-(4-(4-(2-piperidino-5-pyridinecarbonylamino)phenyl)-2-thiazolyl)amino)phenoxy)acetic acid] it was 237 to 240 °C; in that of `O=C(O)CN(c1ccc(C(=O)O)cc1)c1nc(-c2ccc(NC(=O)c3ccccc3)cc2)cs1` [Example 16, 4-(N-(4-(4-benzoylaminophenyl)-2-thiazolyl)-N-carboxymethylamino)benzoic acid], 210 °C (dec.); in that of `C=CCN(Cc1ccc(C2CCCCC2)cc1)c1ccc(-c2csc(N(C)Cc3ccc(C(=O)O)cc3)n2)cc1` [Example 119, 4-((N-(4-(4-(N-allyl-N-(4-cyclohexylbenzyl)amino)phenyl)-2-thiazolyl)-N-methylamino)methyl)benzoic acid], 139 to 141 °C.
As to `O=C(O)c1ccc(C2(c3nc(-c4ccc(OCc5ccc(C6CCCCC6)cc5)cc4)cs3)CCCCC2)cc1` [Example 100, 4-(1-(4-(4-(4-cyclohexylbenzyloxy)phenyl)-2-thiazolyl)cyclohexyl)benzoic acid], the melting point was 222 to 224 °C.
Still for that read-out and setting: in the case of `O=C(O)c1ccc(N(CCOc2ccccc2)c2nc(-c3cc(Cl)ccc3OCc3ccccc3)cs2)cc1` [Example 153, 4-(N-(4-(2-benzyloxy-5-chlorophenyl)-2-thiazolyl)-N-(2-phenoxyethyl)amino)benzoic acid] it was 152 to 155 °C.
